Assay results as given in patent publication US7033829B2, “Method to inhibit cell growth using oligonucleotides” (Trustees of Boston University, priority 2000, dated 2006).
Oligonucleotides are written 5' to 3', each unit as a sugar letter and its base; * is a phosphorothioate linkage, no mark a phosphodiester; rarer units and linkages stand in square brackets, end groups in braces. Plain capitals give the bases only. d = 2'-deoxy (DNA); {P} = phosphate

Key:
Type in all cases: cell-based
[1] = tested on: Cloudman S91 mouse melanoma cells; assay: Melanin content of Cloudman S91 melanoma cells; conditions: for melanogenesis: 100 μM dinucleotides or 40 μM 11mers, 6 days; for melanin content relative to control diluent-treated cells: 10 μM, five days, FIG. 17; for pigment content increase, of control levels: 100 μM, three experiments; for pigment content increase, of control levels / melanin content, of control cells / increase in melanin / reduction of melanogenic activity by removal of the 5′ phosphate: 5 days; for melanin content, of control cells: FIG. 12; for increase in melanin: FIG. 15; for reduction of melanogenic activity by removal of the 5′ phosphate: FIG. 16
Experimental: The induction of melanogenesis in Cloudman S91 mouse melanoma cells by a five-nucleotide oligomer CATAC (SEQ ID NO: 6) and a nine-nucleotide oligomer, GAGTATGAG (SEQ ID NO: 1) was examined. Duplicates of Cloudman S91 murine melanoma cells were incubated with either 100 μM oligo or an equal volume of diluent (H2O) for 5 days. The cells were then collected, counted, and an equal number of cells were pelleted for melanin analysis. […] Variations of this oligonucleotide were evaluated: a scrambled 9-mer (TAGGAGGAT; SEQ ID NO: 2) and two truncated versions, a 7-mer (AGTATGA; SEQ ID NO: 3) and second 5-mer (GTATG; SEQ ID NO: 4). […] The truncated versions (SEQ ID NOs: 3 and 4) were also active, inducing 640% and 670% increases, respectively.
Cultures of Cloudman S91 murine melanoma cells were treated for 5 days with SEQ ID NO: 1, SEQ ID NO: 6, pTpT as a positive control, or an equal volume of diluent as a negative control. […] SEQ ID NO: 6 produced a slight increase in melanin, to 165+/−77% of control levels. SEQ ID NO: 1 stimulated melanin content to an average of 600+/−260% of control levels.
pTpT, shown previously to stimulate pigmentation in these cells, was used as a reference treatment, and diluent alone was used as a negative control. After five days of treatment with the oligonucleotides, the cells were collected, counted, and an equal number of cells were pelleted for melanin analysis. […] SEQ ID NO: 5, representing the telomere over-hang sequence, also at 10 μM, increased the melanin level to 10 times that of control cells.
S91 cells were cultured in the presence of diluent alone, pTpT p9mer (SEQ ID NO: 1), p7mer (AGTATGA; SEQ ID NO: 7) or p5mer #2 (SEQ ID NO: 4). […] Both SEQ ID NOS: 4 and 7 stimulated a 7–8 fold increase in melanin.
S91 cells were cultured for 5 days in the presence of the thymidine dinucleotides or SEQ ID NO: 1 with or without a 5′ phosphate or diluent alone as a negative control.
Cultures of S91 mouse melanoma cells (100,000 cells/38 cm^2) were treated with 100 μM pTpT or phosphorothioate pTpT (pTspT) (FIG. 22) or 40 μM 11mer-1 or the phosphorothioate 11mer-1 (11mer-1-S) (FIG. 23) for 6 days and were then collected, counted and assayed for melanin content.
Duplicate cultures of S91 cells (100,000 cells/39 cm^2) were either sham-irradiated or irradiated with 5 mJ/cm^2 solar-simulated light from a 1 kW xenon arc solar-simulator (XMN 1000-21, Optical Radiation, Azuza, Calif.) metered at […] using a research radiometer (model IL1700A, International Light, Newburyport, Mass.). Two sham-irradiated plates were then supplemented with 100 μM pTspT and two irradiated cultures were similarly treated with pTspT. After one week, cells were collected, counted and analyzed for melanin content by dissolving the cell pellets in 1 N NaOH and measuring the optical density at […]. […] However, this response was blocked by the addition of pTspT (FIG. 24). In addition, the constitutive pigmentation of these cells was reduced by the pTspT in the sham-irradiated cultures, similar to the data presented in FIGS. 22 and 23.

[2] = tested on: normal neonatal human fibroblasts; assay: FACS analysis of normal neonatal fibroblasts; conditions: 40 μM; for S-phase checkpoint: within 24 hours
Experimental: The averages and standard deviations presented in FIGS. 32A–32D were determined from triplicate samples. One representative experiment of three is presented. […] Control 11-base oligonucleotides complementary (11mer-2) or unrelated (11mer-3) to the telomere overhang had no effect on the cells.

[3] = tested on: Human squamous carcinoma cell line SCC12F cells; assay: Cell growth / cell yield of SCC12F cells (Coulter counter); conditions: for reduction of cell number: after 2 days, FIG. 14
Experimental: Human squamous carcinoma cell line SCC12F cells were maintained in primary keratinocyte medium (300 ml DME, 100 ml F-12 nutrient supplement, 50 ml 10× adenine, 50 ml fetal bovine serum, 5 ml penicillin/streptomycin stock, and 0.5 ml of 10 μg/ml epidermal growth factor and hydrocortisone to final concentration of 1.4 μg/ml) and dosed with either water (diluent), 100 μM pTpT (T2, Midland Certified Reagent Company, Midland, Tex.) or 100 μM pdApdA (A2). Cells were harvested before dosing (day 0), and 1, 3, 4, and 5 days after dosage, and were counted by Coulter™ counter. After harvesting, the cells were processed for total RNA isolation and were analyzed by Northern blot. Addition of a control deoxyadenine dinucleotide (pdApdA), a compound very similar to pTpT but not readily dimerized by UV irradiation, and therefore rarely excised during the course of UV-induced DNA repair, has no effect.
In a second experiment, SCC12F cells were cultured as described above. Two or three days after seeding, the preconfluent cultures were given fresh medium supplemented with either 100 μM T2 or diluent as a control. Cells were collected daily by trypsinization and counted by Coulter™ counter. The cell yield in cultures treated with T2 was reduced by […] compared to that of paired control cultures after five days (FIG. 2). This corresponds to 2.3 population doublings in this time for control cells, compared with 1 doubling for T2-treated cells.
pTpT was previously found to inhibit cell cycle progression, at least in part through activation of p53 and subsequent upregulation of the cyclin dependent kinase inhibitor p21. Cultures of the human keratinocyte line SCC12F were treated with pTpT, SEQ ID NO: 1, SEQ ID NO: 6 or diluent alone as a negative control, collected and counted 48 hours later and processed for northern blot analysis of p21 mRNA expression. […] Thus, the sequences of the present invention activate p53 and inhibit cell proliferation similar to the effect of pTpT.
Exposure of keratinocytes to UVB irradiation affects the expression of genes involved in cell cycle arrest, DNA repair and cytokine production. Single-stranded oligonucleotides sharing sequence homology with the telomere 3′ overhang, when introduced into cells, mimic these UV effects. To identify other genes that may be similarly modulated, cells of keratinocyte origin (SCC12F; a human epidermal squamous cell carcinoma line provided by Dr. James Rheinwald of Harvard University) were exposed to solar simulated irradiation (SSR) (20 mJ/cm^2, measured at 285±5 nm), to an 11-base oligonucleotide (pGTTAGGGTTAG; SEQ ID NO:5) homologous to the telomere overhang (T-oligo), or to a complementary sequence as control [pCTAACCCTAAC; (SEQ ID NO:9) control oligonucleotide]. […] These are mitochondrial-transcribed genes whose encoded proteins participate in cellular respiration.

Substance: 11mer-1-S: phosphorothioate 11mer-1 (dG*dT*dT*dA*dG*dG*dG*dT*dT*dA*dG; further chemistry not fully specified)
- melanogenesis [1]: did not
- constitutive pigmentation ([1]; 100 μM pTspT or 40 μM 11mer-1-S, 6 days or one week): reduced the constitutive pigmentation

Substance: pCTAACCCTAAC (DNA, 5' {P}, backbone not given here) [SEQ ID NO: 9, reference compound]
- melanin content relative to control diluent-treated cells [1]: did not produce significant change in pigment content
- S-phase checkpoint [2]: had no effect

Substance: pGAGTATGAG (DNA, 5' {P}, backbone not given here) [SEQ ID NO: 1]
- reduction of cell number [3]: approximately 50%
- pigment content increase, of control levels [1]: 418%±267%
- melanin content, of control cells [1]: 600+/−260%
- increase in melanin [1]: a larger increase
- reduction of melanogenic activity by removal of the 5′ phosphate [1]: 60%
- increase in melanin content ([1]; variations of the 9-mer, cells not given): 800%

Substance: pGATCGATCGAT (DNA {P}-dGdAdTdCdGdAdTdCdGdAdT) [SEQ ID NO: 10, reference compound]
- melanin content relative to control diluent-treated cells [1]: did not produce significant change in pigment content
- S-phase checkpoint [2]: had no effect

Substance: pGTTAGGGTTAG (DNA {P}-dGdTdTdAdGdGdGdTdTdAdG) [SEQ ID NO: 5]
- cellular proliferation ([3]; Example 27): substantially inhibited cellular proliferation
- melanin content relative to control diluent-treated cells [1]: 10 times that of control
- melanogenesis [1]: stimulated melanogenesis
- apoptotic cells ([2]; up to 72 hours): no apoptotic cells were detected
- S-phase checkpoint [2]: activation of an S-phase checkpoint

Substance: thymidine dinucleotide [pTpT]
- cell yield reduced compared to paired control cultures ([3]; 100 μM, after five days): 75%
- cell growth rate ([3]; 100 μM, days 1, 3, 4, 5 after dosage): marked decreases in cell growth rate
- population doublings ([3]; 100 μM, five days (control 2.3)): 1
- reduction of cell number [3]: 40%
- melanin content relative to control diluent-treated cells [1]: 3 times that of control
- melanogenesis [1]: stimulated melanogenesis
- pigment content increase, of control levels [1]: 155%±60%
- melanin content, of control cells [1]: 255+/−60%
- increase in melanin [1]: moderate increase in melanin content
- reduction of melanogenic activity by removal of the 5′ phosphate [1]: 80%
